Laboratory results taken from patent publication US9808477B2 (Macau University of Science and Technology, priority 2015, dated 2017).
Read-outs that look alike come from different tables or passages of the source.

Columns and labels:
[1] = in vitro; type: cell-based; settings: human
Procedure: (§1) Sulphorhodamine B (SRB) assays were used for cell density determination, based on sensitive measure of total cellular protein, which perform similarly compared with other proliferation assays such as MTT assay. Briefly, cells were seeded into flat bottomed 96-well plates at an initial density of 7.5×10^3 per well before treatment. […] After removing the medium, cells were fixed in 10% trichloroacetic acid for 1 h at 4° C. and then washed with water five times. 0.4% SRB dissolved in 1% v/v acetic acid was added and incubated […] for staining. The cells were quickly washed with 1% acetic acid and left to dry overnight. The protein bound SRB was solubilized by adding 200 μl 10 mM Tris buffer per well and was measured at wavelengths 490 nm using a plate reader (Spectra MAX 250; Molecular Devices, Sunnyvale, Calif.). The optical density of SRB in each well is directly proportional to the cell number.

[2] = tested on: A2780 cells; test: Intracellular accumulation of doxorubicin and Flutax-2; type: cell-based, human; settings: parental A2780, nobiletin 4.5 μM
Procedure: A2780 or A2780/T cells (5×10^6) were cultured on the cover glass (ISO LAB 20×20 mm). […] After treatment, cells were fixed in 4 wt % formaldehyde (Sigma-Aldrich). Nuclear DNA was stained with 1 μg/mL blue-fluorescent DAPI (1 mg/mL in H2O stock solution; Invitrogen D1306). One drop of fluorescent preservation solution (fluorsave reagent, CALBIOCHEM) was added before observation. Imaging was carried out for comparing the intracellular accumulation of DOX and flutax-2 with a Fluorescence Microscopy (Leica DM2500, Leica, Germany).
Cells were detached, re-suspended in 500 μl of PBS after washed twice with cold PBS, and analyzed by flow cytometry (BD FACS Aria, BD Biosciences, San Jose, Calif.). Excitation and emission wavelengths (nm) used for DOX and flutax-2 were as follows: 480 to 585; and 496 to 524.

[3] = rats, single administration 50 mg/kg by gavage; cited from earlier work
[4] = tested on: prostate cancer cell lines; settings: several prostate cancer cell lines; read-out: IC50, growth inhibition; cited from earlier work
[5] = tested on: A2780/T cells; test: Colony formation assay; type: cell-based, human; settings: 12 days
Source text: The A2780/T cells were trypsinized and plated in fresh culture medium at a density of 600 cells/9.6 cm^2 plate. Subsequently, the cells were fixed with 70% ethanol and stained with crystal violet (0.5% in ethanol). The plates were rinsed with phosphate buffered saline (PBS), and the colony numbers were counted using the software of Quantity one-Colony counting.

[6] = tested on: A2780/T cells; test: Intracellular accumulation of doxorubicin and Flutax-2; type: cell-based, human; settings: 8 h, 4.5 μM nobiletin or 20 μM QND
[7] = tested on: Caco-2 cells; settings: nobiletin 20 μM; cited from earlier work
[8] = tested on: P-gp, p53, AKT/ERK, Nrf2 in A2780/T cells; test: Western blot analysis; type: cell-based, human
Procedure: The total cellular samples were harvested and rinsed twice with ice-cold PBS buffer. Cell extracts were lysed in RIPA buffer (50 mM Tris (pH 7.4), 150 mM NaCl, 1% Triton X-100, 1% sodium deoxycholate, 0.1% SDS, sodium orthovanadate, sodium fluoride and EDTA) containing protease inhibitor cocktails (Roche Life Science, USA). Protein concentration was determined using the BCA protein assay kit. Equal amounts of cell lysates were resolved by SDS-PAGE and subsequently electrophoretically transferred onto PVDF membranes (Millipore, Darmstadt, Germany). After blocking in tris-buffered saline containing 0.1% of Tween20 (TBST) with 5% (w/v) skim milk (Nestle Carnation, New Zealand) for 2 h at room temperature, the membranes were incubated with primary and secondary antibodies and subsequently visualized with an enhanced chemiluminescence detection kit (Thermo Scientific™ SuperSignal™ West Pico Chemiluminescent Substrate, USA). β-Actin was used as the loading control for the experimental data analysis.

[9] = molecular target: T1, recombinant human ABCB1 membranes (P-gp ATPase) (Homo sapiens, UniProt P08183); test: ABCB1 ATPase activity assay (PgpGlo); type: biochemical
T1 construct: purchased Promega
Procedure: Sodium orthovanadate (Na3VO4) was used as an ABCB1 ATPase inhibitor. […] Luminescence was initiated by ATP detection buffer. The plate (white opaque 96-well, corning, USA) was further incubated at room temperature for […] to develop luminescent signal, and was read with luminometer (infinite M200 PRO, TECAN, Switzerland).

[10] = tested on: A2780/T cells; test: Apoptosis analysis by Annexin-V/PI double staining; type: cell-based, human
Procedure: After treatment, 1×10^6 cells were collected, washed and suspended in 100 μl of binding buffer (10 mM N-2-hydroxyethylpiperazine-N,-2-ethanesulfonic acid/NaOH, 140 mM NaCl, 2.5 mM CaCl2, pH 7.4). Apoptotic cells were identified by double supravital staining with 5 μl recombinant FITC (fluorescein isothiocyanate)-conjugated Annexin-V and 5 μl PI (50 μg/ml). The cells were stained for […] at room temperature in the dark, and analyzed by fluorescence-activated cell sorting cater-plus flow cytometry. Data acquisition and analysis were performed in BD FACS Aria with FlowJo software.

[11] = tested on: A2780/T cells; test: Cell cycle analysis (PI, flow cytometry); type: cell-based, human
Procedure: A2780/T cells were harvested 24 hours, 48 hours, or 72 hours after treatment and washed twice with ice-cold PBS. The cells were fixed and permeabilized with 70% ice-cold ethanol overnight at 4° C. or 2 h at −20° C. After one additional wash in PBS, cells were stained with a staining solution containing propidium iodide (PI) ([…]) and RNase A (250 μg/ml) for 30 min at room temperature. They were then pelleted, washed and suspended in PBS to a final concentration of 1×10^6/ml and analyzed by flow cytometry BD FACS Aria (BD Biosciences, San Jose, Calif.).

[12] = healthy subjects, single dose of Sytrinol (1053 mg total polymethoxylated flavones); cited from earlier work
[13] = in vitro; type: cell-based; settings: human; remark: listed apart in the source
Procedure: as §1

[14] = 9 μM nobiletin alone or 0.94 μM PTX alone
[15] = nobiletin 9 μM in combination with 0.94 μM PTX

T1 sequence (P08183 whole entry): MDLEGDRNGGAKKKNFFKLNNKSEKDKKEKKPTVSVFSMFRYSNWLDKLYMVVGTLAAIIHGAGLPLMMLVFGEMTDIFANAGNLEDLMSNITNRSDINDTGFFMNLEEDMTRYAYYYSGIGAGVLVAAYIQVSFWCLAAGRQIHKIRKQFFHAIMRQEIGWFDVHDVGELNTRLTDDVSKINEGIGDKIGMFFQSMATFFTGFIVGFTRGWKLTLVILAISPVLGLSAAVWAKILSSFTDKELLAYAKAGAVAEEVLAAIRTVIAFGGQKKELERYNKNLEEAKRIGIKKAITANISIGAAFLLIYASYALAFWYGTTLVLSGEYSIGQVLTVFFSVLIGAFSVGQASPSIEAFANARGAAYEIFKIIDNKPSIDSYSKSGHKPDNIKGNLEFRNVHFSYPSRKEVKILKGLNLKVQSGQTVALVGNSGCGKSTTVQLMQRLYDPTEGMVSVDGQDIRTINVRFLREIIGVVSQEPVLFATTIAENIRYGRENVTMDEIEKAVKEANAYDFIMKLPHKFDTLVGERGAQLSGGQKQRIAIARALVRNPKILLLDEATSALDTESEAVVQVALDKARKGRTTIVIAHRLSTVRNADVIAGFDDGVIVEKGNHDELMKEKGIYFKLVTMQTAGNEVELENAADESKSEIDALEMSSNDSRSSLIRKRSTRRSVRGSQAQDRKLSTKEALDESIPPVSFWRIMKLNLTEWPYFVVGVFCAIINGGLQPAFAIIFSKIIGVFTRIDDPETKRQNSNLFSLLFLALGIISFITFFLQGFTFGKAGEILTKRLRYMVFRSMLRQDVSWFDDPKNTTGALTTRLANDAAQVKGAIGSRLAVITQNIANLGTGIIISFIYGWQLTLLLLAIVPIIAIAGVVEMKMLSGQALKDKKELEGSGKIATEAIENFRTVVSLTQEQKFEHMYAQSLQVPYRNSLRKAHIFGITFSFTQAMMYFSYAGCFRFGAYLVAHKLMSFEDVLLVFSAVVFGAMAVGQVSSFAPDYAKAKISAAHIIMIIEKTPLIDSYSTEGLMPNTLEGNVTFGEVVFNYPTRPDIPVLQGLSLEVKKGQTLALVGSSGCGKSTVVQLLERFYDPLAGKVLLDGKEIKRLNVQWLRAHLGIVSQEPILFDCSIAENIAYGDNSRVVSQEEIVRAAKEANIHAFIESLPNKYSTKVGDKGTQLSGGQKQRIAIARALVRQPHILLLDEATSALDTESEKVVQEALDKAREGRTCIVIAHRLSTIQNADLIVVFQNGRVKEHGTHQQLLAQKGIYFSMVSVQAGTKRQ

COc1ccc(-c2cc(=O)c3c(OC)c(OC)c(OC)c(OC)c3o2)cc1OC [nobiletin]
viability at 9 µM [1]: > 90% | DOX and Flutax-2 levels [2]: no effect | peak plasma level [3]: ~22.5 µM | IC50 [4]: ~100 µM | inhibition of colony formation, single agent [5, 14]: no inhibition | inhibition of colony formation, combination ([5]; different concentrations of nobiletin with 0.94 μM PTX): Complete inhibition | intracellular accumulation of DOX ([6]; 5 μM DOX): higher than that in untreated A2780/T | intracellular accumulation of Flutax-2 ([6]; Flutax-2 1 μM): higher than that in untreated A2780/T | increase of uptake of [3H] vinblastine [7]: 3 fold | phosphorylated AKT/ERK level ([8]; 50 μM nobiletin): significant decrease | phosphorylated AKT and ERK ([8]; PTX and nobiletin, 48 h): significant inhibitory effect | p53 level ([8]; PTX in combination with nobiletin): accumulation of p53 | expression of total and phosphorylated AKT and ERK ([8]; nobiletin alone at reversal concentrations): no effect | protein level of ABCB1 ([8]; nobiletin at concentrations used in reversal assays, 48 h): did not significantly alter | protein level of Nrf2 ([8]; nobiletin in combination with 0.94 μM PTX, dose-dependent): reduced | EC50 [9]: 5.88 µM | IC50 [9]: 7.17 µM | maximal stimulation of ATPase activity relative to basal activity ([9]; human, 40 min): 3 fold | apoptosis induction, single treatment [10, 14]: did not show apoptosis induction | apoptosis induced by 0.94 μM PTX (annexin V-FITC positive) ([10]; 0.5, 1.5, 4.5 and 9 μM nobiletin + 0.94 μM PTX, 48 h): significantly increase apoptosis | effect on the cell cycle ([11]; nobiletin 9 μM alone): no effect | G1 phase cells [11, 15]: 9.6% | G2 phase cells [11, 15]: 75.77% | peak plasma level [12]: ~2.5 µM | viability at 9 µM [13]: > 90%
